Data reported in patent US9597315B2, “1-heteroaryl-3-azabicyclo[3.1.0]hexanes, methods for their preparation and their use as medicaments” (EUTHYMICS BIOSCIENCE, INC., priority 2007, dated 2017).

Legend:
Format in all cases: cell-based
human NE transporter = target: T1, human NE transporter (Homo sapiens, UniProt P23975); test: Inhibition of [3H]NE uptake in cells expressing the recombinant human NE transporter; details: MDCK cells expressing the NE transporter; for inhibition at 1 µM: 1 μM compound, read-out: Uptake inh. % at 1 μM NE
T1 construct: expressed in transfected cells; host or cells: MDCK cells
Procedure: (§1) The ability of the 1-heteroaryl-3-azabicyclo[3.1.0.]hexane of the invention for inhibiting transport of norepinephrine (NE) and/or dopamine (DA) and/or serotonin (5-HT) were evaluated using cell lines (such as the HEK 293 cell line) that stably express recombinant human NE, DA, and 5-HT transporters, respectively. The techniques for stably transfecting mammalian cell lines with neurotransmitter transporters and measuring the effects of drugs on amine uptake have been described in the literature (e.g., Gu, H., et al. J. Biol. Chem. 269:7124-7130, 1994; Eshleman A J, J Pharmacol Exp Ther 289:877-885, 1999) and well known to those skilled in the art.
(§2) A basic technique for measuring the ability of a compound to inhibit [^3H]NE, DA, and 5-HT uptake in cell lines recombinantly expressing human transporters has been described (Eshleman, et al., 1999). In brief, cell suspensions (HEK 293 cells expressing the 5-HT transporter; MDCK cells expressing the NE transporter, and CHO-K1 cells expressing the DA transporter, respectively) can be prepared for assay by removing the medium from cells grown on tissue culture dishes, then washing the plates with buffered medium. Cells can then be gently scraped from the plates and cell clusters separated by trituration with a pipette for 5-10 aspiration/ejection cycles. To these cell suspensions were added test drugs (final concentrations generally from 0.01-5 μM) and Tris/Hepes buffer, pH 7.1 (also containing 120 mM NaCl, 1.2 mM CaICl2, 1.2 mM MgSO4, 5 mM D-glucose, and 1 mM ascorbic acid). Following a preincubation of the isolated cells at 25° C., either [^3H]DA, [^3H]5-HT, or [^3H]NE was added and the incubation continued an additional 10 minutes. Radiolabelled neurotransmitter uptake was terminated by vacuum filtration and washing through Whatman glass fiber filters (GF/C), and the radioactivity retained on the filters was measured by liquid scintillation spectrometry. Specific uptake was defined as the difference in uptake observed in the absence and presence of a large molar excess of nomifensine, desipramine, or fluoxetine (for [^3H]DA, [^3H]NE or [^3H]5-HT, respectively].
(§3) The results of these assays are shown in Table 2, below, which indicates, for each of the exemplary compounds, the structure of the substituent, and levels of observed uptake inhibition percentage for each of the indicated neurotransmitters at a fixed concentration of compound, or the IC50 value, defined as that concentration of compound necessary to inhibit uptake by 50%. These are standard terms known to those skilled in the art.

human 5-HT transporter = target: T2, human 5-HT transporter (Homo sapiens, UniProt P31645); test: Inhibition of [3H]5-HT uptake in cells expressing the recombinant human 5-HT transporter; details: HEK 293 cells expressing the 5-HT transporter; for inhibition at 1 µM: HEK293, 1 μM compound, read-out: Uptake inh. % at 1 μM 5-HT
T2 construct: expressed in transfected cells; host or cells: HEK 293 cells
Procedure: as §1, §2, §3

human DA transporter = target: T3, human DA transporter (Homo sapiens, UniProt Q01959); test: Inhibition of [3H]DA uptake in cells expressing the recombinant human DA transporter; details: CHO-K1 cells expressing the DA transporter; for inhibition at 1 µM: 1 μM compound, read-out: Uptake inh. % at 1 μM DA
T3 construct: expressed in transfected cells; host or cells: CHO-K1 cells
Procedure: as §1, §2, §3

T2 sequence (P31645 whole entry): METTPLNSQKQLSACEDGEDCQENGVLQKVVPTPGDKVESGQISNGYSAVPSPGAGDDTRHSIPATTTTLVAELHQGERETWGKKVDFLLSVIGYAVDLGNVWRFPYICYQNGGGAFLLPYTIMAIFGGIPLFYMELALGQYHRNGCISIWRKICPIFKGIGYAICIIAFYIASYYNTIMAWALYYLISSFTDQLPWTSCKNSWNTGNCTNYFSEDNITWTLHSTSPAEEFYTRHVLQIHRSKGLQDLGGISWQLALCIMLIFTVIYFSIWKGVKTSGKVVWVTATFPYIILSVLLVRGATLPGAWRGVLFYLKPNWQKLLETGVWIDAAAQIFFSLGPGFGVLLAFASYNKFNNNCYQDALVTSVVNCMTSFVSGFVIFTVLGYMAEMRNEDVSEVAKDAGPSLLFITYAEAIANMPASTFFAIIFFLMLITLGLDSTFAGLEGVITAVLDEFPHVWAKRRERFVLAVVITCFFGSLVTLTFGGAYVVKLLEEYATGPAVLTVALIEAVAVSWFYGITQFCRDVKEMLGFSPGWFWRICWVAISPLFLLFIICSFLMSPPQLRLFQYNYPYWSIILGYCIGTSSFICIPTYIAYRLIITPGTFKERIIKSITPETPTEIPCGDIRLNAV
T3 sequence (Q01959 whole entry): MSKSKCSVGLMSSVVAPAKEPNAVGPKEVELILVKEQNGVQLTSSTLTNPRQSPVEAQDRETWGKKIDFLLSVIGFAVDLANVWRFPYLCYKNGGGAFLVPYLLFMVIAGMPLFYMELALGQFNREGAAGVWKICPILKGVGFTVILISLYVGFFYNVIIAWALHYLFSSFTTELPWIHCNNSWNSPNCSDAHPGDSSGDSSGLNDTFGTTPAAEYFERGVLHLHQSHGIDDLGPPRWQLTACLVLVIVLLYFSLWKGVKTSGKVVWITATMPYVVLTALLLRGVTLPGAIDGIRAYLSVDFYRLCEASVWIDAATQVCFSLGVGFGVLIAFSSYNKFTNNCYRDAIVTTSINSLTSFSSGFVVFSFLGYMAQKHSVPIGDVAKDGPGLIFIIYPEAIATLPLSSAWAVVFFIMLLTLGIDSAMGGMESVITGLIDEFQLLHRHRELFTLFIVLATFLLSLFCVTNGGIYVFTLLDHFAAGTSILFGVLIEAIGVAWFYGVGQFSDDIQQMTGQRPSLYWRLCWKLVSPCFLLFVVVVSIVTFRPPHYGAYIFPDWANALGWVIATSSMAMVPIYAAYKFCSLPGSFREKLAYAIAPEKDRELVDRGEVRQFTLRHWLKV
T1 sequence (P23975 whole entry): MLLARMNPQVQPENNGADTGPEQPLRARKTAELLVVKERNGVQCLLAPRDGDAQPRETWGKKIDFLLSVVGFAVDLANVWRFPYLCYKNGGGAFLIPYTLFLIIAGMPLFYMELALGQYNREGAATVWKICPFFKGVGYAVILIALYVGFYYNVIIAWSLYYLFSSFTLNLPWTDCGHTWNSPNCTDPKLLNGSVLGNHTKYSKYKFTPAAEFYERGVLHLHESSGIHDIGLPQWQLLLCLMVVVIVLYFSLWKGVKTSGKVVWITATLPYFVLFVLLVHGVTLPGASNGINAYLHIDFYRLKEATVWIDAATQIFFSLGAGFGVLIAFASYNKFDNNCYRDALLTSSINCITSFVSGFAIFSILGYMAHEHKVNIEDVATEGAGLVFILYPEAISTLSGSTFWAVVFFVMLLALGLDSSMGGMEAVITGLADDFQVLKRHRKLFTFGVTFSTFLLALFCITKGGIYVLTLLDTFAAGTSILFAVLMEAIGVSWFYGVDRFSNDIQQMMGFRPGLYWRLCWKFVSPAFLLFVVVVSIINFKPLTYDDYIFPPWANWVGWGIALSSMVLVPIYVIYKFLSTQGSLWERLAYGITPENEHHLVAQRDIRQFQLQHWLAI

| Structure (SMILES) | IC50 (human NE transporter) | IC50 (human 5-HT transporter) | IC50 (human DA transporter) | inhibition at 1 µM (human NE transporter) | inhibition at 1 µM (human 5-HT transporter) | inhibition at 1 µM (human DA transporter) |
| --- | --- | --- | --- | --- | --- | --- |
| CN1CC2CC2(c2cc3ccccc3o2)C1 (stereo not drawn) | 400 nM | 340 nM | 630 nM |  |  |  |
| c1ccc2c(C34CNCC3C4)coc2c1 (stereo not drawn) | 82 nM | 188 nM | 770 nM | 77% | 57% | 63% |
| CN1CC2CC2(c2coc3ccccc23)C1 (stereo not drawn) | 138 nM | 1450 nM | 475 nM | 82% | 45% | 67% |
| Cc1ccc(C23CNCC2C3)s1 (stereo not drawn) |  |  |  | 59% | 35% | 20% |
| c1ccc2ncc(C34CNCC3C4)cc2c1 (stereo not drawn) |  |  |  | 64% | 14% | 10% |
| CN1CC2CC2(c2cc3ccccc3n2C)C1 (stereo not drawn) |  |  |  | 35% | 64% | 19% |
| CCN1CC2CC2(c2cc3ccccc3n2C)C1 (stereo not drawn) |  |  |  | 29% | 65% | 32% |
| Clc1ccc2scc(C34CNCC3C4)c2c1 (stereo not drawn) |  |  |  | 50% | 18% | 13% |
| CN1CC2CC2(c2csc3ccc(Cl)cc23)C1 (stereo not drawn) |  |  |  | 39% | 50% | 1% |
| CN1CC2CC2(c2ccc3c(ccn3C)c2)C1 (stereo not drawn) | 186 nM | 154 nM | 811 nM | 53% | 71% | 45% |
| CCN1CC2CC2(c2ccc3c(ccn3C)c2)C1 (stereo not drawn) | 138 nM | 308 nM | 215 nM | 39% | 59% | 65% |
| CC(C)N1CC2CC2(c2cc3ccccc3n2C)C1 (stereo not drawn) |  |  |  | 13% | 83% | 7% |
| c1ccc2sc(C34CNCC3C4)nc2c1 (stereo not drawn) |  |  |  | 72% | 7% | 5% |
| c1ccc2sc(C34CNCC3C4)cc2c1 (stereo not drawn) | 20 nM | 88 nM | 82 nM | 90% | 66% | 91% |
| CN1CC2CC2(c2cc3ccccc3s2)C1 (stereo not drawn) | 60 nM | 34 nM | 98 nM | 71% | 92% | 88% |
| c1ccc2sc([C@]34CNC[C@H]3C4)cc2c1 | 14 nM | 193 nM | 52 nM | 97% | 96% | 90% |
| c1ccc2sc([C@@]34CNC[C@H]3C4)cc2c1 | 99 nM | 481 nM | 149 nM | 84% | 76% | 90% |
| CN1C[C@H]2C[C@@]2(c2cc3ccccc3s2)C1 | 71 nM | 54 nM | 224 nM | 89% | 99% | 82% |
| CN1C[C@H]2C[C@]2(c2cc3ccccc3s2)C1 | 107 nM | 263 nM | 195 nM | 75% | 89% | 83% |
| Fc1ccc2cc(C34CNCC3C4)sc2c1 (stereo not drawn) |  |  |  | 98% | 100% | 99% |
| CN1CC2CC2(c2cc3ccc(F)cc3s2)C1 (stereo not drawn) |  |  |  | 88% | 99% | 94% |
| c1cnc2ccc(C34CNCC3C4)cc2c1 (stereo not drawn) |  |  |  | 68% | 63% | 17% |
| CN1CC2CC2(c2ccc3ncccc3c2)C1 (stereo not drawn) |  |  |  | 13% | 93% | 12% |
| Fc1ccc2sc(C34CNCC3C4)cc2c1 (stereo not drawn) |  |  |  | 91% | 98% | 78% |
| CN1CC2CC2(c2cc3cc(F)ccc3s2)C1 (stereo not drawn) |  |  |  | 70% | 94% | 63% |
